The results in this text go back to publication PMC6934184, “Selective DNA-PKcs inhibition extends the therapeutic index of localized radiotherapy and chemotherapy” (The Journal of Clinical Investigation, 2019).

SMILES strings stand for the structures.

The target of this assay is T1, FLT3 D835Y (Homo sapiens, UniProt P36888, D835Y).
T1 construct: purchased Thermo Fisher Scientific (Life Technologies) SelectScreen
As to the kind of experiment: SelectScreen Z'LYTE. The assay is classed as biochemical. The method, boiled down:
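SelectScreen broad panel; activity (Z'LYTE, Adapta) plus binding formats. ATP: Km app for CSF1R Z'LYTE; 10 for CAMK1 Adapta. Readout = % per kinase.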

A word on the inhibition: it is the change of the read-out against control, counted positive when it falls. Take `CN(C(=O)CN1CCOCC1)c1ccc2sc3c(-c4cccc5c(=O)cc(N6CC7CCC(C6)O7)oc45)cccc3c2c1` [NU5455]: the inhibition at 1 µM is -3.9%.
